The target of assay [1] is T1, human 5-HT4(b) receptors (Homo sapiens, UniProt Q13639).
T1 construct: expressed in transfected cells
Put plainly: Radioligand binding assay with [3H]GR113808, membranes of HEK293 cells stably expressing human 5-HT4(b) receptors. How it is done: (§1) The development of HEK293 cell lines stably expressing human 5-HT4(b) receptors was described and published previously (Bach et al. 2001). Briefly, HEK293 cells (ATCC) were grown in Dulbecco's modified Eagle's medium with 10% fetal calf serum and penicillin (100 U/ml) and streptomycin (100 μg/ml). Cells were transfected with plasmid DNA (pcDNA3.1(−) containing human 5-HT4(b) receptor cDNA) using SuperFect Transfection Reagent (QIAGEN) according to the manufacturers protocol. Serial dilutions of transfected cells were plated in 96 well plates containing G418 (geneticin; Amersham) at 0.4 mg/ml, and isolated single colonies of cells transformed to the neomycin-resistant phenotype were expanded and tested for expression of serotonin receptors by measuring serotonin-stimulated adenylyl cyclase activity (Themmen et al. 1993). Transformed cells were always grown in the presence of G418 (0.4 mg/ml). For binding and adenylyl cyclase analysis, stable cell lines were grown and maintained in UltraCULTURE™ general purpose serum-free medium (BioWhittaker, Walkersville, Md., USA), supplemented with L-glutamine (2 mM), penicillin (100 U/ml) and streptomycin (100 μg/ml).
(§2) Membranes were prepared from stably transfected HEK293 cells cultured on 150-mm cell culture dishes and grown to 80% confluence in serum-free medium (UltraCULTURE™, BioWhittaker) with penicillin (10 U/ml) and 2 mM L-Glutamine (BioWhittaker). Cells were washed twice with 10 ml ice-cold HBSS, scraped with a rubber policeman in 10 ml ice-cold HBSS and collected by centrifugation at 800 g for 5 min at 4° C. The cell pellet was resuspended in 1 ml/dish ice-cold STE buffer (27% (w/v) sucrose, 50 mM Tris-HCl, pH 7.5 at 20° C., 5 mM EDTA) and homogenized with an Ultra-Turrax (IKA) homogenizer, using five 10 s bursts with 30 s cooling in ice-water between bursts. To remove nuclei, the homogenate was centrifuged at 300 g for 5 min at 4° C. and the supernatant was further centrifuged at 17000 g for 20 min at 4° C. and the supernatant removed. The crude membrane pellet was resuspended with ten strokes of tight fitting pestle B in a Dounce glass-glass homogenizer in 1 ml/dish ice-cold TE (50 mM Tris-HCl, pH 7.5 at RT, 5 mM EDTA). This procedure was repeated twice and the resuspended membranes were finally aliqouted and flash frozen in liquid nitrogen and stored at −70° C. until use.
Binding assays were performed in 96-well, round-bottom microtiter plates with total reaction volumes of 50-200 μl, containing the indicated concentration of [^3H]GR113808 with or without competing unlabelled ligand in a binding buffer containing 50 mM Tris-HCl (pH 7.5 at RT), 1 mM EDTA, 5 mM EGTA, 2 mM MgCl2, 1 mM ascorbate, 0.1% BSA and 100 μM GTP. The plates were incubated at 23° C. for 60 min and harvested onto UniFilter™-96 GF/C™ (Packard Instrument Co., Meriden, Conn., USA), presoaked in 0.3% polyethyleneimine (Sigma), using a Packard FilterMate Universal Harvester with 96-well format, and washed 4-6 times with approximately 0.25 ml/well of ice-cold buffer, containing 50 mM Tris-HCl (pH 7.0 at RT) and 2 mM MgCl2. The filters were dried and counted at approximately 40% efficiency in a Top-Count liquid scintillation counter (Packard), using 20 μl per filter well of Micro-Scint liquid scintillation cocktail (Packard).
(§3) Binding and adenylyl cyclase data were analyzed by non-linear regression using Microsoft Excel with the Solver add-in, using the below equations.
Competitive binding assays—The data were fit to the equation
where a is non-specific binding, b is total binding in the absence of competitor, c is IC50, and x is the concentration of competitor. Where relevant, relative binding data were obtained by recalculating the data using a=0 and b=100.
IC50 values from competitive binding assays were converted to Kb values by the method of Cheng and Prusoff (1973).

Assay [2] deals with T1, human 5-HT4(b) receptors. Put plainly: Adenylyl cyclase assay in membranes of HEK293 cells stably expressing human 5-HT4(b) receptors. In kind it is biochemical. The settings on record: for Kb: where n = 2, ± half-range, read-out: Antagonist pKb value (pKb ± SEM) (converted). How it is done:
as §1, §2
Adenylyl cyclase activity was measured by determining conversion of [α-^32P]ATP to [^32P]cAMP in membranes prepared in STE by homogenization of cells grown and washed as described above in a Dounce glass-glass homogenizer by 10 strokes with the tight-fitting pestle. Membranes were kept on ice prior to assay. Adenylyl cyclase activities were measured on 10-μl aliquots in a final volume of 50 μl in the presence of 0.1 mM [α-^32P]ATP (1-2×10^6 cpm/assay), 4 mM MgCl2, 20 μM GTP, 1 mM EDTA, 1 mM [^3H]cAMP (ca. 10,000 cpm/assay), 1 μM 3-isobutyl-1-methyl xanthine (IBMX; Sigma), a nucleoside triphosphate regenerating system consisting of 20 mM creatine phosphate (Sigma), 0.2 mg/ml creatine phosphokinase (Sigma) and 40 U/ml myokinase (Sigma) and additives described in the text and figures. When forskolin (Calbiochem, La Jolla, Calif., USA) was used the concentration was 100 μM. Incubations were for 20 min at 32° C. Cyclic AMP formed was quantified by the double column chromatography system of Salomon et al. (1974) as modified by Bockaert et al. (1976).
as §3
Activation of adenylyl cyclase—The data were fit to the equation
where a is basal adenylyl cyclase activity, b is maximal adenylyl cyclase activity stimulated by the agonist, c is EC50, and x is the concentration of agonist.

The mark [3] stands for this setting: [3H]GR113808, HEK293 membranes, human 5-HT4(b), where n = 2, ± half-range, read-out: Binding affinity (pKd value) (pKd ± SEM) (converted).

Where two headings read alike, the source gives them in different places.

T1 sequence (Q13639 whole entry): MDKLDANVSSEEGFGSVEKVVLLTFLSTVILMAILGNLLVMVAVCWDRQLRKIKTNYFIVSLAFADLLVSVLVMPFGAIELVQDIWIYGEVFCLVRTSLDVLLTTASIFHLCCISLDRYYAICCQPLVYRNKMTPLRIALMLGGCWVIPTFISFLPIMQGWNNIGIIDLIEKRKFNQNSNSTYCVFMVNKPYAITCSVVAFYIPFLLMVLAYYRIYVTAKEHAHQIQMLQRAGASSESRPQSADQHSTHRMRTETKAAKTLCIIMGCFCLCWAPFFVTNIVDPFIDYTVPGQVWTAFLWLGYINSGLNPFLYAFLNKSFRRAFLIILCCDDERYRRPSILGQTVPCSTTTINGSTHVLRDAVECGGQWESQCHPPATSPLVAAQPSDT

Take `CCOC(=O)CCCN1CCC(COC(=O)c2cccc3ccccc23)CC1` [Example 25]: on human 5-HT4(b) receptors [1] (setting [3]), the Kd is 6.46 nM. In addition, at human 5-HT4(b) receptors [2], the Agonist/Antagonist properties result is listed as “Antagonist” and the Kb is 6.61 nM.

`CCOC(=O)CCCN1CCC(CNC(=O)c2c3n(c4ccccc24)CCCO3)CC1` [Example 49]: the Kd on human 5-HT4(b) receptors [1] was 0.123 nM. On human 5-HT4(b) receptors [2], the Agonist/Antagonist properties result was “Antagonist” and the Kb is 1.55 nM.

As to `CCOP(=O)(CCN1CCC(COC(=O)c2cccc3ccccc23)CC1)OCC` [Example 27], on human 5-HT4(b) receptors [1] (setting [3]), the Kd is 15.8 nM. Also, on human 5-HT4(b) receptors [2], the Agonist/Antagonist properties entry is reported as “Weak partial” and the Kb is 19.1 nM.

`O=C(O)CCCN1CCC(COC(=O)c2cccc3ccccc23)CC1` [Example 26]: the Kd on human 5-HT4(b) receptors [1] (setting [3]) was 12.9 nM. Also, on human 5-HT4(b) receptors [2], the Agonist/Antagonist properties entry is recorded as “Weak partial” and the Kb was 69.2 nM.

Consider `CCCCN1CCC(CNC(=O)c2c3n(c4ccccc24)CCCO3)CC1` [SB207266, reference compound], for which the Agonist/Antagonist properties entry at human 5-HT4(b) receptors [2] was “Antagonist”.

`O=C(O)CCCN1CCC(CNC(=O)c2c3n(c4ccccc24)CCCO3)CC1` [Example 52]: the Kd on human 5-HT4(b) receptors [1] (setting [3]) was 2.09 nM. For the same compound, at human 5-HT4(b) receptors [2], the Kb was 11 nM.

Consider `O=C(O)CN1CCN(S(=O)(=O)CCCN2CCC(CNC(=O)c3cccc4c3OCCO4)CC2)CC1` [Example 67], for which the Kd at human 5-HT4(b) receptors [1] (setting [3]) is 0.813 nM. On human 5-HT4(b) receptors [2], the Agonist/Antagonist properties entry is on record as “Antagonist” and the Kb is 2.75 nM.

For the compound `O=C(O)CCCN1CCC(COC(=O)c2c[nH]c3ccccc23)CC1` [Example 13, 1H-indole-3-carboxylic acid 1-(3-carboxy-propyl)-piperidin-4-ylmethyl ester], at human 5-HT4(b) receptors [1] (setting [3]), the Kd is 0.912 nM. For the same compound, at human 5-HT4(b) receptors [2], the Agonist/Antagonist properties result is listed as “Antagonist” and the Kb is 7.08 nM.

For `CCOC(=O)CCCN1CCC(CNC(=O)c2c[nH]c3ccccc23)CC1` [Example 60], the Kd at human 5-HT4(b) receptors [1] (setting [3]) was 110 nM. Further, at human 5-HT4(b) receptors [2], the Agonist/Antagonist properties result is “Antagonist” and the Kb was 1620 nM.

`O=C(O)CCCN1CCC(NC(=O)c2cccc3ccccc23)CC1` [Example 17]: the Kd on human 5-HT4(b) receptors [1] (setting [3]) is 1000 nM. In addition, the Kb at human 5-HT4(b) receptors [2] is 38000 nM.

For `CCOC(=O)CCCN1CCC(CNC(=O)c2cc(Cl)c(N)cc2OC)CC1` [Example 40], at human 5-HT4(b) receptors [1] (setting [3]), the Kd is 20 nM. On human 5-HT4(b) receptors [2], the Agonist/Antagonist properties result is “Partial agonist” and the Kb was 66.1 nM.

On to `O=C(NCC1CCN(Cc2ccccc2)CC1)c1c2n(c3ccccc13)CCCO2` [Example 47], for which, at human 5-HT4(b) receptors [1], the Kd is 0.158 nM. At human 5-HT4(b) receptors [2], the Agonist/Antagonist properties result is on record as “Antagonist” and the Kb was 0.427 nM.

Take `CCOP(=O)(CCN1CCC(CNC(=O)c2c3n(c4ccccc24)CCCO3)CC1)OCC` [Example 53]: the Kd on human 5-HT4(b) receptors [1] (setting [3]) was 1.32 nM. Moreover, on human 5-HT4(b) receptors [2], the Agonist/Antagonist properties result was “Antagonist” and the Kb is 2.51 nM.

Regarding `Cn1cc(C(=O)OCC2CCN(CCNS(C)(=O)=O)CC2)c2ccccc21` [GR113808, 1-methyl-1H-indole-3-carboxylic acid, [1-[2-[(methylsulfonyl)amino]ethyl]-4-piperidinyl]methyl ester, reference compound], the Kd at human 5-HT4(b) receptors [1] (setting [3]) is 0.0813 nM. Moreover, at human 5-HT4(b) receptors [2], the Agonist/Antagonist properties result is “Antagonist” and the Kb was 0.537 nM.

Turning to `O=C(O)CCCN1CCC(CNC(=O)c2c[nH]c3ccccc23)CC1` [Example 62], on human 5-HT4(b) receptors [1] (setting [3]), the Kd is 3630 nM. For the same compound, on human 5-HT4(b) receptors [2], the Kb is 28200 nM.

Regarding `CC(C)n1nc(C(=O)NC2CCN(Cc3ccccc3)CC2)c2ccccc21` [Example 29, N-(1-benzylpiperidin-4-yl)-1-isopropylindazole-3-carboxamide], on human 5-HT4(b) receptors [1] (setting [3]), the Kd was 200 nM. On human 5-HT4(b) receptors [2], the Agonist/Antagonist properties entry is on record as “Partial agonist” and the Kb is 309 nM.

As to `O=C(OCC1CCN(Cc2ccccc2)CC1)c1cccc2ccccc12` [Example 22, 1-[(1-benzylpiperidin-4-yl)carboxymethyl] napthalene], the Kd at human 5-HT4(b) receptors [1] (setting [3]) was 42.7 nM. For the same compound, on human 5-HT4(b) receptors [2], the Agonist/Antagonist properties result was “Weak partial” and the Kb was 11.2 nM.

As for `CC(C)n1nc(C(=O)NC2CCN(Cc3ccc(C(=O)O)cc3)CC2)c2ccccc21` [Example 36], at human 5-HT4(b) receptors [1] (setting [3]), the Kd is 2190 nM. The Kb on human 5-HT4(b) receptors [2] was 1150 nM.

Regarding `CC(C)n1nc(C(=O)NC2CCN(Cc3ccc(C(=O)OCC(Cl)(Cl)Cl)cc3)CC2)c2ccccc21` [Example 35], the Kd on human 5-HT4(b) receptors [1] (setting [3]) was 1200 nM. Further, at human 5-HT4(b) receptors [2], the Agonist/Antagonist properties entry is reported as “Partial agonist” and the Kb was 724 nM.

For the compound `O=C(CCCN1CCC(CNC(=O)c2c3n(c4ccccc24)CCCO3)CC1)OCC(Cl)(Cl)Cl` [Example 51], on human 5-HT4(b) receptors [1], the Kd is 0.263 nM. Also, the Kb at human 5-HT4(b) receptors [2] was 0.537 nM.

In the case of `CCOC(=O)CCCN1CCC(NC(=O)c2cccc3ccccc23)CC1` [Example 18], the Kd on human 5-HT4(b) receptors [1] (setting [3]) was 1580 nM. On human 5-HT4(b) receptors [2], the Agonist/Antagonist properties entry is “Antagonist” and the Kb was 3240 nM.

As for `CCOC(=O)CCCN1CCC(NC(=O)c2nn(C(C)C)c3ccccc23)CC1` [Example 31], the Kd on human 5-HT4(b) receptors [1] (setting [3]) was 67.6 nM. Further, at human 5-HT4(b) receptors [2], the Agonist/Antagonist properties result is “Partial agonist” and the Kb is 178 nM.

Regarding `CC(C)n1nc(C(=O)NC2CCN(CCCC(=O)O)CC2)c2ccccc21` [Example 33], the Kd at human 5-HT4(b) receptors [1] (setting [3]) is 692 nM. In addition, on human 5-HT4(b) receptors [2], the Agonist/Antagonist properties entry was “Partial agonist” and the Kb is 1050 nM.

As to `COC(=O)CCCCCN1CCC(CNC(=O)c2c3n(c4ccccc24)CCCO3)CC1` [Example 50], on human 5-HT4(b) receptors [1], the Kd was 0.135 nM. Also, at human 5-HT4(b) receptors [2], the Agonist/Antagonist properties result was “Antagonist” and the Kb was 0.759 nM.

With `O=C(CCCN1CCC(COC(=O)c2c[nH]c3ccccc23)CC1)OCC(Cl)(Cl)Cl` [Example 12, 1H-indole-3-carboxylic acid 1-[3-(2,2,2-trichloroethyl-ethoxycarbonyl)-propyl]-piperidine-4-ylmethyl ester], the Kd at human 5-HT4(b) receptors [1] (setting [3]) was 5.01 nM. The Kb at human 5-HT4(b) receptors [2] was 0.741 nM.

Source of the values: patent publication US20090029979A1, “5-HTX MODULATORS” (BIO-MEDISINSK INNOVASJON AS, priority 2005, published 2009).
